For 22 compounds, IC50 results are on record in US20250042857A1, “SOS1 Inhibitor With Pyrido-Fused Six-Membered Ring Structure” (HAIHE BIOPHARMA CO., LTD., priority 2021, published 2025).

Assay [1] concerns the target KRAS-G12C/SOS1 (Homo sapiens (Human), UniProt Q07889). The experiment in a line: Detection of inhibitory effects of compounds on KRAS-G12C/SOS1 (KRASG12C/SOS binding kit, HTRF). To be noted: Em665/620, read-out: IC50, inhibitory activity on interaction of KRAS-G12C/SOS1. An excerpt:
Experimental objective: The inhibitory effects of the tested compounds on KRAS-G12C/SOS1 were detected. IC50 was used to characterize the inhibitory ability of the compounds on the KRAS-G12C/SOS1. The lower IC50 value indicated the stronger inhibitory ability. BI-3406 was used as a positive control compound.
Experimental reagents: KRASG12C/SOS binding kit (Cisbio, cat. 63ADK000CB16PEG); DMSO (Sigma, cat. D8418-1L); and 384-well white plate (PerkinElmer, cat. 6007290)
• 1. Preparation of compounds: the test compounds were dissolved in 100% DMSO to obtain 10 mM stock solutions and the stock solutions were stored in a refrigerator in the dark. • 2. Kinase reaction process:
Preparation of compounds: the test compounds had the concentration of 5,000 nM and diluted in a 384-well plate into a 100% DMSO solution at the 200-fold final concentration, and the compounds were diluted 3-fold with 10 concentrations. 50 nL of the compounds at the 200-fold final concentration were transferred to the plate of interest, the 384-well plate, using a dispenser Echo 550. 50 nL of 100% DMSO was added to each negative control well and positive control well.
A Tag1-SOS1 solution at the 4-fold final concentration was prepared using a diluent buffer.
2.5 μL of the Tag1-SOS1 solution at the 4-fold final concentration was added to the 384-well plate.
A Tag2-KRAS-G12C solution at the 4-fold final concentration was prepared using the diluent buffer.
2.5 μL of the Tag2-KRAS-G12C solution at the 4-fold final concentration was respectively added into compound wells and the positive control wells; and 2.5 μL of the diluent buffer was added to the negative control wells.
The 384-well plate was centrifuged at 1,000 rpm for 30 seconds, shaken and mixed uniformly, and incubated at room temperature for 15 minutes.
An Anti-Tag1-TB3+ solution at the 1-fold final concentration and an Anti-Tag2-XL665 solution at the 1-fold final concentration were prepared using a detection buffer, the two solutions were mixed uniformly to obtain a Mix solution, and 5 μL of the Mix solution was added into each well.
The 384-well plate was centrifuged at 1,000 rpm for 30 seconds, shaken and mixed uniformly, and incubated at 4° C. for 120 minutes.
Em665/620 was read using an Envision microplate reader.
Inhibition %=(Max signal−Compound signal)/(Max signal−Min signal)×100 Calculation formula • wherein the Min signal was the mean value of the negative control wells, and the Max signal was the mean value of the positive control wells.
A dose-response curve was fitted using the log value of the concentration as an X axis and the percentage of the inhibitory rate as a Y axis by using the log(inhibitor) vs. response-variable slope of an analytical software GraphPadPrism5, thereby obtaining the IC50 value of each compound on an enzyme activity.
A general note: Time-resolved FRET reads energy transfer from a long-lived donor to a nearby acceptor.

Assay [2] relates to p-ERK of PC-9 cells. The experiment in a line: p-ERK HTRF assay in PC-9 cells. Format: cell-based. To be noted: Homo sapiens, PC-9, 1 h, PC-9 lung cancer cells, 1 hour treatment, read-out: IC50, inhibitory activity on p-ERK of PC-9 cells. As to the method:
IC50 Values of Compounds Determined by p-ERK HTRF Assay in PC-9 Cells
Experimental objective: an inhibitory effect of the test compounds on the phosphorylation of PC-9ERK of lung cancer cells at a cellular level was evaluated by detecting the phosphorylation of ERK.
• PRMI 1640 medium (Invitrogen-11875093) • 0.25% pancreatin (Invitrogen-25200056) • Phosphoric acid buffer salt solution (PBS, pH 7.4) (Invitrogen-10010023) • Double-antibody (PS) (Invitrogen-15140122) • Fetal bovine serum (FBS) (Gibco-10091148) • Trypan blue (Gibco-15250061) • 10-cm culture dish (Corning-430167) • 10-mL pipette (Costar-4488) • Pipettor (Sartorius-17009031) • 15-mL centrifuge tube (Corning-430052) • 50-mL centrifuge tube (Corning-430829) • Cryotube (Thermo-377267) • 1.5-mL EP tube (Axygen-MCT-150-C-S) • Cell incubator (Thermo-371) • Microscope (Olympus-CKX41) • Centrifuge (Flying Pigeon-TDL-80-2B) • Cell counter (Countstar-IC-1000) • Envision (Perkin Elmer) • Spark 10M (TECAN) • Phospho-ERK1/2 (Thr202/Tyr204) Experimental kit (Cisbio, Cat. No. 64AERPEG) • PC-9 cells: RPMI1640+10% FBS+1% PS
• 1) PBS, 0.25% pancreatin, and a cell culture medium were placed in a water-bath kettle at 37° C. for preheating; • 2) cells were observed under a microscope, a fusion degree was evaluated, and no bacterial and fungi pollution was confirmed; • 3) a culture solution was removed, the cells were washed with 5 mL of PBS and digested with 2 mL of the 0.25% trypsin, the digestion was terminated with 10 mL of the fresh cell culture medium, a culture dish was rinsed, and the cells were transferred to a 15-mL centrifuge tube; • 4) the collected cells were centrifuged at 1,000 rpm for 5 minutes; • 5) after the centrifugation, the supernatant was discarded, the cells were resuspended in 5 mL of the cell culture medium, 20 μL of the resuspended cells were aspirated, and the number and viability of viable cells were recorded; • 6) the cell culture medium was used and the cell density was adjusted (PC-9:10,000 cells/well, and 45 μL per well); • 7) in a 384-well plate, 45 μL of a cell suspension per well was transferred according to an experimental design figure; and • 8) the cells were incubated overnight at 37° C. and 5% CO2.
• 1) The compounds were diluted from the stock concentration to 10 mM with 100% DMSO (Trametinib was diluted to 1 mM), then 3-fold diluted into 10 points (5 μL of the diluted compounds with the concentration of 10 mM were transferred to 10 μL of the DMSO in an LDV plate), and centrifuged at 1,000 rpm/min for 1 minute; • 2) 5 μL of the diluted compounds of step 1) were transferred to an inter plate 1 containing 45 μL of the cell culture medium (the compounds were diluted from 1,000× to 100×); • 3) 5 μL of the diluted compounds of step 2) were transferred to an inter plate 2 containing 45 μL of the cell culture medium (the compounds were diluted from 100× to 10×); • 4) 5 μL of the compounds were pipetted from the inter plate 2 into a cell culture plate (the compounds were diluted from 10 folds to 1 fold), the final concentrations of the test compounds were 10,000 nM, 3333.33 nM, 1111.11 nM, 370.37 nM, 123.46 nM, 41.15 nM, 13.72 nM, 4.57 nM, 1.52 nM, and […], the solution was centrifuged at 1,000 rpm/min for 1 minute, and the final content of the DMSO was 0.1%; and • 5) the cells were treated in an incubator at 37° C. for 1 hour. […]

Sequence of KRAS-G12C/SOS1 (Q07889 whole entry, stated change not applied): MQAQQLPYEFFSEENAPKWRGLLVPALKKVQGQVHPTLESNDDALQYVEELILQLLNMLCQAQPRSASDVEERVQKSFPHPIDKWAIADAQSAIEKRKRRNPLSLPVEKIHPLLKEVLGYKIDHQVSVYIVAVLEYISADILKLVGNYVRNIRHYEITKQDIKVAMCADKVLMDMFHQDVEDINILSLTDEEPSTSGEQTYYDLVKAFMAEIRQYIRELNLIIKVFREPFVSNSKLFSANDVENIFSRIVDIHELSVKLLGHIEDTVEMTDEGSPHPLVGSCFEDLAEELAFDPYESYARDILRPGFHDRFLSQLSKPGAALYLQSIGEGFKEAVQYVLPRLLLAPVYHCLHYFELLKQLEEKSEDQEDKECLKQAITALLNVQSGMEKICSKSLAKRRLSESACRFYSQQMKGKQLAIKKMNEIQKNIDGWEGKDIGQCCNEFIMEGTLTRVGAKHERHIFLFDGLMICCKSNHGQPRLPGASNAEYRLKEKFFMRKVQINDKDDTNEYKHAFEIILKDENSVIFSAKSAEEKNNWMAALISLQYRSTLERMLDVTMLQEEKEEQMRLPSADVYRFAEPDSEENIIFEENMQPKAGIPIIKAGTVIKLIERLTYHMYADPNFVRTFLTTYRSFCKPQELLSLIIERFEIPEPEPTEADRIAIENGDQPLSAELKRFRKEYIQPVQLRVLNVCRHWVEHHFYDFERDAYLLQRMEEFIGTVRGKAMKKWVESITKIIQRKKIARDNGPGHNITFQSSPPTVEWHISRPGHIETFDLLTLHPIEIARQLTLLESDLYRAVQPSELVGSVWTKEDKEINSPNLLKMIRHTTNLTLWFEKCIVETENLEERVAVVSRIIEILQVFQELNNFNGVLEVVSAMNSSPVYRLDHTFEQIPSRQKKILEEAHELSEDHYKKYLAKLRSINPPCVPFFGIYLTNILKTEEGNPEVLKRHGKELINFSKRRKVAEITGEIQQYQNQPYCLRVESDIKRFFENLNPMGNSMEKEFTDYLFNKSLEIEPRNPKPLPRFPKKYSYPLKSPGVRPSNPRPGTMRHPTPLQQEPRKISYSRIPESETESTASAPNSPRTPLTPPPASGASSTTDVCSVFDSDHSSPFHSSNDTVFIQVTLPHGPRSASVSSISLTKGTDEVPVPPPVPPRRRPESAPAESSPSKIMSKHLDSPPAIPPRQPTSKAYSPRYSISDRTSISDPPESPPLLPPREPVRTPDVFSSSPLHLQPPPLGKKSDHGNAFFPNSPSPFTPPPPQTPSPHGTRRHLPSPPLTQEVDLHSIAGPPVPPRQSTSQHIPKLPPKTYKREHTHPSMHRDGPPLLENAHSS

Take `COc1c(N2CCN(C(C)=O)CC2)cc2c(N[C@H](C)c3cccc(C(F)F)c3F)ccnc2c1F` [Compound A-102]: the IC50 is at most 100 nM in assay [1] and at most 300 nM in assay [2].

With `C[C@@H](Nc1ccnc2cnc(C3(O)CCN(C4COCC4O)CC3)cc12)c1cccc(C(F)F)c1F` (stereo partly shown) [Compound B-152], the IC50 in assay [1] is at most 100 nM; in assay [2] it was 300 to 1000 nM. Turning to `C[C@@H](Nc1ccnc2cnc(N3CCC(O)(CN)CC3)cc12)c1cccc(C(F)F)c1F` [Compound B-75], the IC50 in assay [1] is at most 100 nM; in assay [2], 300 to 1000 nM. On to `C[C@@H](Nc1ccnc2cnc(C3(O)CCC(N(C)C)CC3)cc12)c1cccc(C(F)F)c1F` (single isomer, unassigned) [Compound B-94-P2], for which the IC50 in assay [1] is at most 100 nM; in assay [2], at most 300 nM. In the same order, the values of `CC(=O)N1CCN(c2cc3c(N[C@H](C)c4cccc(C(F)F)c4F)c(F)cnc3cn2)CC1` [Compound B-111] are at most 100 nM and at most 300 nM. In the case of `CC(=O)N1CCN(c2cc3c(N[C@H](C)c4cccc(C(F)F)c4F)cc(C)nc3cn2)CC1` [Compound B-71], the IC50 is at most 100 nM in assay [1] and at most 300 nM in assay [2].

Take `C[C@@H](Nc1ccnc2cnc(C3(O)CCN(C(=O)C[C@H]4CNCCO4)CC3)cc12)c1cccc(C(F)F)c1F` [Compound B-143]: the IC50 in assay [2] is above 1000 nM. On to `C[C@@H](Nc1ccnc2cnc(C3(O)CCN(C(=O)CN4CC[C@@H](O)C4)CC3)cc12)c1cccc(C(F)F)c1F` [Compound B-150], for which the IC50 in assay [1] is at most 100 nM; in assay [2] it was above 1000 nM.

With `CNC(=O)C1(O)CCN(c2cc3c(N[C@H](C)c4cccc(C(F)F)c4F)ccnc3cn2)CC1` [Compound B-76], the IC50 was at most 100 nM in assay [1] and at most 300 nM in assay [2]. For the compound `Cc1cc(N[C@H](C)c2cccc(C(F)F)c2F)c2cc(C3(O)CCC(O)CC3)ncc2n1` (single isomer, unassigned) [Compound B-88-P2], the IC50 in assay [1] was at most 100 nM; in assay [2], 300 to 1000 nM. The matching figures for `C[C@@H](Nc1ccnc2cnc(C3(O)CCN(C(=O)[C@@H]4CCOC4)CC3)cc12)c1cccc(C(F)F)c1F` [Compound B-133]: at most 100 nM and at most 300 nM. On to `CC(=O)N1CCC(O)(c2cc3c(N[C@H](C)c4cccc(C(F)F)c4F)ccnc3c(-c3cnn(C)c3)n2)CC1` [Compound B-170], for which the IC50 in assay [1] was at most 100 nM; in assay [2], at most 300 nM. `C[C@@H](Nc1ccnc2cnc(C3(O)CCN(C(=O)N(C)C)CC3)cc12)c1cccc(C(F)F)c1F` [Compound B-160]: the IC50 in assay [1] was at most 100 nM; in assay [2], at most 300 nM.

As to `C[C@@H](Nc1ccnc2cnc(N3CCN(C(=O)C4COC4)CC3)cc12)c1cccc(C(F)F)c1F` [Compound B-26], the IC50 in assay [2] is at most 300 nM. Consider `C[C@@H](Nc1ccnc2cnc(N3CCn4nccc4C3)cc12)c1cccc(C(F)F)c1F` [Compound B-28], for which the IC50 in assay [2] lay within 300 to 1000 nM.

With `C[C@@H](Nc1ccnc2cnc(N3CCn4cncc4C3)cc12)c1cccc(C(F)F)c1F` [Compound B-30], the IC50 in assay [2] is at most 300 nM.

As to `C[C@@H](Nc1ccnc2cnc(N3CCCS3(=O)=O)cc12)c1cccc(C#N)c1F` [Compound B-166], in assay [2], the IC50 was at most 300 nM. Regarding `C[C@@H](Nc1ccnc2cnc(N3CCN(C(=O)C4CCOCC4)CC3)cc12)c1cccc(C(F)F)c1F` [Compound B-27], in assay [2], the IC50 is at most 300 nM. In the case of `C[C@@H](O)C(=O)N1CCC(O)(c2cc3c(N[C@H](C)c4cccc(C(F)F)c4F)ccnc3cn2)CC1` [Compound B-120], the IC50 in assay [2] is at most 300 nM.

For the compound `C[C@@H](Nc1ccnc2cnc(C3(O)CCN(C(=O)C[C@@H]4CNCCO4)CC3)cc12)c1cccc(C(F)F)c1F` [Compound B-142], in assay [2], the IC50 is above 1000 nM. `C[C@@H](Nc1ccnc2cnc(N3CCn4ccnc4C3)cc12)c1cccc(C(F)F)c1F` [Compound B-29]: the IC50 in assay [2] is 300 to 1000 nM. As to `C[C@@H](Nc1ccnc2cnc(N3CCN(C(=O)C4CC4)CC3)cc12)c1cccc(C(F)F)c1F` [Compound B-25], the IC50 in assay [2] is at most 300 nM.
